# Molecular target: histone deacetylase (HDAC Enzyme)
# Experiment: Inhibition of Histone Deacetylase Enzymatic Activity (Boc-Lys(Ac)-AMC, Fluor-de-Lys developer)
# Type: biochemical
# Settings: Table 10; read-out: HDAC Inhibition (IC50 μM) HDAC Enzyme
# Procedure: The following protocol is used to assay the compounds of the invention.
# The mixture is pre-incubated for 5 minutes at room temperature. The reaction is started by bringing the temperature to 37° C. and adding 16 μl substrate. Total reaction volume is 50 μl.
# In the Tables 8, 9 and 10, A≦[…]<B≦0.1 μM; 0.1 μM<C≦1 μM; and 1 μM<D≦10 μM.
row,IC50,SMILES
1,0.1 to 1 µM,O=C(NO)c1cnc(N2CCC[C@H]2c2nc3ccccc3[nH]2)nc1 [(S)-2-(2-(1H-benzo[d]imidazol-2-yl)pyrrolidin-1-yl)-N-hydroxypyrimidine-5-carboxamide]
2,0.1 to 1 µM,"O=C(Cc1ccc(CN2c3ccccc3C=Cc3ccccc32)cc1)NO [(Z)-2-(4-((5H-dibenzo[b,f]azepin-5-yl)methyl)phenyl)-N-hydroxyacetamide]"
3,1 to 10 µM,"O=C(CN1c2ccccc2C=Cc2ccccc21)NO [(Z)-2-(5H-dibenzo[b,f]azepin-5-yl)-N-hydroxyacetamide]"
4,0.1 to 1 µM,"O=C(NO)c1cccc(CN2c3ccccc3C=Cc3ccccc32)c1 [(Z)-3-((5H-dibenzo[b,f]azepin-5-yl)methyl)-N-hydroxybenzamide]"
5,1 to 10 µM,"O=C(CCCN1c2ccccc2C=Cc2ccccc21)NO [(Z)-4-(5H-dibenzo[b,f]azepin-5-yl)-N-hydroxybutanamide]"
6,< 0.05 µM,"O=C(NO)c1ccc(CN2c3ccccc3C=Cc3ccccc32)cc1 [(Z)-4-((5H-dibenzo[b,f]azepin-5-yl)methyl)-N-hydroxybenzamide]"
7,0.1 to 1 µM,"O=C(CCCCN1c2ccccc2C=Cc2ccccc21)NO [(Z)-5-(5H-dibenzo[b,f]azepin-5-yl)-N-hydroxypentanamide]"
8,< 0.05 µM,"O=C(CCCCCN1c2ccccc2C=Cc2ccccc21)NO [(Z)-6-(5H-dibenzo[b,f]azepin-5-yl)-N-hydroxyhexanamide]"
9,< 0.05 µM,"O=C(CCCCCC(=O)N1c2ccccc2C=Cc2ccccc21)NO [(Z)-7-(5H-dibenzo[b,f]azepin-5-yl)-N-hydroxy-7-oxoheptanamide]"
10,< 0.05 µM,"O=C(CCCCCCN1c2ccccc2C=Cc2ccccc21)NO [(Z)-7-(5H-dibenzo[b,f]azepin-5-yl)-N-hydroxyheptanamide]"
11,0.1 to 1 µM,"O=C(CCCCCCC(=O)N1c2ccccc2C=Cc2ccccc21)NO [(Z)-8-(5H-dibenzo[b,f]azepin-5-yl)-N-hydroxy-8-oxooctanamide]"

row,SMILES,IC50
1,"O=C1CN=C(c2ccc(C(=O)NO)cc2)c2cc(Br)sc2N1 [(Z)-4-(7-bromo-2-oxo-2,3-dihydro-1H-thieno[2,3-e][1,4]diazepin-5-yl)-N-hydroxybenzamide]",0.1 to 1 µM
2,"CN1C(=O)CN=C(c2ccccc2)c2ccc(CCC(=O)NO)cc21 [(Z)-N-hydroxy-3-(1-methyl-2-oxo-5-phenyl-2,3-dihydro-1H-benzo[e][1,4]diazepin-8-yl)propanamide]",0.1 to 1 µM
3,"CN1C(=O)CN=C(c2ccc(C(=O)NO)cc2)c2ccccc21 [(Z)-N-hydroxy-4-(1-methyl-2-oxo-2,3-dihydro-1H-benzo[e][1,4]diazepin-5-yl)benzamide]",0.1 to 1 µM

# Same assay, conditions: read-out: HDAC Inhibtion (IC50 μM) HDAC Enzyme
row,SMILES,IC50
1,"CN(O)C(=O)c1ccc(C2=Nc3ccccc3N(C3CC3)c3ccccc32)cc1 [(Z)-4-(5-cyclopropyl-5H-dibenzo[b,e][1,4]diazepin-11-yl)-N-hydroxy-N-methylbenzamide]",1 to 10 µM
2,"O=C(NO)c1ccc(C2=Nc3ccccc3N(CC3CC3)c3ncccc32)cc1 [(Z)-4-(11-(cyclopropylmethyl)-11H-benzo[b]pyrido[2,3-e][1,4]diazepin-5-yl)-N-hydroxybenzamide]",1 to 10 µM
3,"O=C(NO)c1ccc(C2=Nc3ccsc3Oc3ccccc32)cc1 [(Z)-4-(benzo[f]thieno[2,3-b][1,4]oxazepin-5-yl)-N-hydroxybenzamide]",0.1 to 1 µM
4,"O=C(NO)c1ccc(C2=Nc3ccccc3Oc3ccccc32)cc1F [(Z)-4-(dibenzo[b,f][1,4]oxazepin-11-yl)-2-fluoro-N-hydroxybenzamide]",0.1 to 1 µM
5,"O=C(NO)c1ccc(C2=Nc3ccccc3Sc3ccccc32)cc1 [(Z)-4-(dibenzo[b,f][1,4]thiazepin-11-yl)-N-hydroxybenzamide]",0.1 to 1 µM
6,"O=C(NO)c1ccc(C2=Nc3ccccc3Oc3c[n+]([O-])ccc32)cc1 [(Z)-5-(4-(hydroxycarbamoyl)phenyl)benzo[b]pyrido[4,3-f][1,4]oxazepine 2-oxide]",0.1 to 1 µM
7,"COc1cccc2c1C(c1ccc(C(=O)NO)cc1)=Nc1ccccc1O2 [(Z)-N-hydroxy-4-(1-methoxydibenzo[b,f][1,4]oxazepin-11-yl)benzamide]",0.1 to 1 µM
8,"COc1ccc2c(c1)C(c1ccc(C(=O)NO)cc1)=Nc1ccccc1O2 [(Z)-N-hydroxy-4-(2-methoxydibenzo[b,f][1,4]oxazepin-11-yl)benzamide]",0.1 to 1 µM
9,"COc1ccc2c(c1)Oc1ccccc1N=C2c1ccc(C(=O)NO)cc1 [(Z)-N-hydroxy-4-(3-methoxydibenzo[b,f][1,4]oxazepin-11-yl)benzamide]",0.1 to 1 µM

# The next lines start with the values.
row,IC50,SMILES
1,0.1 to 1 µM,"O=C(NO)c1cccc(C2=Nc3ccccc3Oc3ccccc32)c1 [(Z)-3-(dibenzo[b,f][1,4]oxazepin-11-yl)-N-hydroxybenzamide]"
2,< 0.05 µM,"O=C(NO)c1ccc(C2=Nc3ccccc3Oc3cccc(F)c32)cc1 [(Z)-4-(1-fluorodibenzo[b,f][1,4]oxazepin-11-yl)-N-hydroxybenzamide]"
3,< 0.05 µM,"O=C(NO)c1ccc(C2=Nc3ccccc3Oc3ccc(Cl)cc32)cc1 [(Z)-4-(2-chlorodibenzo[b,f][1,4]oxazepin-11-yl)-N-hydroxybenzamide]"
4,< 0.05 µM,"COc1cc(F)cc2c1Oc1ccccc1N=C2c1ccc(C(=O)NO)cc1 [(Z)-4-(2-fluoro-4-methoxydibenzo[b,f][1,4]oxazepin-11-yl)-N-hydroxybenzamide]"
5,< 0.05 µM,"O=C(NO)c1ccc(C2=Nc3ccccc3Oc3ccc(F)cc32)cc1 [(Z)-4-(2-fluorodibenzo[b,f][1,4]oxazepin-11-yl)-N-hydroxybenzamide]"
6,0.1 to 1 µM,"O=C(NO)c1ccc(C2=Nc3ccccc3Oc3cc(F)ccc32)cc1 [(Z)-4-(3-fluorodibenzo[b,f][1,4]oxazepin-11-yl)-N-hydroxybenzamide]"
7,0.1 to 1 µM,"O=C(NO)c1ccc(C2=Nc3ccccc3Oc3c(F)cccc32)cc1 [(Z)-4-(4-fluorodibenzo[b,f][1,4]oxazepin-11-yl)-N-hydroxybenzamide]"
8,0.05 to 0.1 µM,"O=C(NO)c1ccc(C2=Nc3ccccc3N(C3CC3)c3ccc(F)cc32)cc1 [(Z)-4-(5-cyclopropyl-2-fluoro-5H-dibenzo[b,e][1,4]diazepin-11-yl)-N-hydroxybenzamide]"
9,0.1 to 1 µM,"O=C(NO)c1ccc(C2=Nc3ccccc3N(C3CC3)c3ccccc32)cc1 [(Z)-4-(5-cyclopropyl-5H-dibenzo[b,e][1,4]diazepin-11-yl)-N-hydroxybenzamide]"
10,0.05 to 0.1 µM,"CCN1c2ccccc2N=C(c2ccc(C(=O)NO)cc2)c2ccccc21 [(Z)-4-(5-ethyl-5H-dibenzo[b,e][1,4]diazepin-11-yl)-N-hydroxybenzamide]"
11,< 0.05 µM,"O=C(NO)c1ccc(C2=Nc3ccccc3Cn3cccc32)cc1 [(Z)-4-(5H-benzo[e]pyrrolo[1,2-a][1,4]diazepin-11-yl)-N-hydroxybenzamide]"
12,0.1 to 1 µM,"O=C(NO)c1ccc(C2=Nc3ccccc3Nc3ccccc32)cc1 [(Z)-4-(5H-dibenzo[b,e][1,4]diazepin-11-yl)-N-hydroxybenzamide]"
13,0.05 to 0.1 µM,"O=C(NO)c1ccc(C2=Nc3cccc(F)c3Oc3ccccc32)cc1 [(Z)-4-(6-fluorodibenzo[b,f][1,4]oxazepin-11-yl)-N-hydroxybenzamide]"
14,0.1 to 1 µM,"O=C(NO)c1ccc(C2=Nc3ccc(Cl)cc3Oc3ccccc32)cc1 [(Z)-4-(7-chlorodibenzo[b,f][1,4]oxazepin-11-yl)-N-hydroxybenzamide]"
15,< 0.05 µM,"N#Cc1ccc2c(c1)Oc1ccccc1C(c1ccc(C(=O)NO)cc1)=N2 [(Z)-4-(7-cyanodibenzo[b,f][1,4]oxazepin-11-yl)-N-hydroxybenzamide]"
16,0.05 to 0.1 µM,"O=C(NO)c1ccc(C2=Nc3cc(Cl)ccc3Nc3ccccc32)cc1 [(Z)-4-(8-chloro-5H-dibenzo[b,e][1,4]diazepin-11-yl)-N-hydroxybenzamide]"
17,0.1 to 1 µM,"O=C(NO)c1ccc(C2=Nc3cc(Cl)ccc3Oc3ccccc32)cc1 [(Z)-4-(8-chlorodibenzo[b,f][1,4]oxazepin-11-yl)-N-hydroxybenzamide]"
18,0.05 to 0.1 µM,"N#Cc1ccc2c(c1)N=C(c1ccc(C(=O)NO)cc1)c1ccccc1O2 [(Z)-4-(8-cyanodibenzo[b,f][1,4]oxazepin-11-yl)-N-hydroxybenzamide]"
19,0.05 to 0.1 µM,"O=C(NO)c1ccc(C2=Nc3c(F)cccc3Oc3ccccc32)cc1 [(Z)-4-(9-fluorodibenzo[b,f][1,4]oxazepin-11-yl)-N-hydroxybenzamide]"
20,< 0.05 µM,"O=C(NO)c1ccc(C2=Nc3ccccc3N(C3CC3)c3ncccc32)cc1 [(Z)-4-(11-cyclopropyl-11H-benzo[b]pyrido[2,3-e][1,4]diazepin-5-yl)-N-hydroxybenzamide]"
21,< 0.05 µM,"CCN1c2ccccc2N=C(c2ccc(C(=O)NO)cc2)c2cccnc21 [(Z)-4-(11-ethyl-11H-benzo[b]pyrido[2,3-e][1,4]diazepin-5-yl)-N-hydroxybenzamide]"
22,0.05 to 0.1 µM,"O=C(NO)c1ccc(C2=Nc3ccccc3Oc3ncccc32)cc1 [(Z)-4-(benzo[b]pyrido[3,2-f][1,4]oxazepin-5-yl)-N-hydroxybenzamide]"
23,0.1 to 1 µM,"O=C(NO)c1ccc(C2=Nc3ccccc3Oc3cnccc32)cc1 [(Z)-4-(benzo[b]pyrido[4,3-f][1,4]oxazepin-5-yl)-N-hydroxybenzamide]"
24,< 0.05 µM,"O=C(NO)c1ccc(C2=Nc3cccnc3Oc3ccccc32)cc1 [(Z)-4-(benzo[f]pyrido[2,3-b][1,4]oxazepin-6-yl)-N-hydroxybenzamide]"
25,< 0.05 µM,"O=C(NO)c1ccc(C2=Nc3ccccc3Oc3ccccc32)cc1 [(Z)-4-(dibenzo[b,f][1,4]oxazepin-11-yl)-N-hydroxybenzamide]"
26,0.05 to 0.1 µM,"O=C(NO)c1ccc(C2=Nc3ccc(C(F)(F)F)nc3Oc3ccccc32)cc1 [(Z)-N-hydroxy-4-(2-(trifluoromethyl)benzo[f]pyrido[2,3-b][1,4]oxazepin-6-yl)benzamide]"
27,0.05 to 0.1 µM,"O=C(NO)c1ccc(C2=Nc3ccccc3Oc3cc(C(F)(F)F)ccc32)cc1 [(Z)-N-hydroxy-4-(3-(trifluoromethyl)dibenzo[b,f][1,4]oxazepin-11-yl)benzamide]"

# — patent US8399452B2, “Dibenzo[b,f][1,4]oxazepin-11-yl-N-hydroxybenzamides as HDAC inhibitors” (Methylgene Inc., priority 2006, dated 2013)
